Earlier results, collected in EP1487791B1, “A NOVEL ANTIFUNGAL MOLECULE 2-(3,4-DIMETHYL-2,5-DIHYDRO-1H-PYRROL-2-YL)- METHYLETHYL PENTANOATE” (priority 2002, dated 2003).

Details: reported by Zager, R.A., 2000; cited from earlier work

Q: With C[C@@H]1[C@H](O)[C@@H](C)/C=C/C=C/C=C/C=C/C=C/C=C/C=C/[C@H](O[C@@H]2O[C@H](C)[C@@H](O)[C@H](N)[C@@H]2O)C[C@@H]2O[C@](O)(C[C@@H](O)C[C@@H](O)[C@H](O)CC[C@@H](O)C[C@@H](O)CC(=O)O[C@H]1C)C[C@H](O)[C@H]2C(=O)O [amphotericin B] as the compound, how does the CT50 read?
A: 4.0 to 64.0 µg/mL
